The source of these data is US20070258893A1, “Compositions and methods for imaging expression of cell surface receptors” (priority 2003, published 2007).

Entries after “also recorded” stand apart in the source; their conditions may differ. Positions of bridges follow the written chain, without caps; N, C: chain ends. Non-standard residues stand in square brackets, D forms with d. Residues, ends and D or L forms follow the SMILES beside them. No end group written: not given here. 2Nal = N[C@@H](Cc1ccc2ccccc2c1)C(=O)O; Cit = NC(=O)NCCC[C@H](N)C(=O)O

As usually defined, the CC50 is the concentration giving 50% cytotoxicity.

Data set [1] deals with HIV. The following applies: cited from earlier work; for SI=CC50/EC50: MT4 cells; for EC50: read-out: concentration required for 50% protection of HIV-induced cytopathogenicity in MT4 cells (EC50).
Data set [2] deals with MT4 cells. Conditions: cited from earlier work.
Data set [3] relates to HUVECs. Briefly: SDF-1 induced endothelial tubular formation. It counts as cell-based. Conditions: SDF-1 for 18 hours, pretreatment, P<0.001.
The subject of data set [4] is CXCR4-mediated cancer metastasis. The data set can be described thus: CXCR4-mediated cancer metastasis in vivo. Conditions: TN14003 three times weekly injection; WZ811S more frequent injection schedule.
Data set [5] deals with metastatic 686LN cells. Briefly: Experimental head and neck cancer metastasis model (tail vein injection), FDG-PET imaging. It counts as in vivo. The following applies: metastatic 686LN cells intravenously, nude mice.
Data set [6] has as its system metastatic 686LN cells. Briefly: Orthotopic SCCHN xenograft model (BLI, CD31 immunostaining, H&E of lungs). It counts as in vivo, nude mice. From the text:
FIG. 2 illustrates that CXCR4 antagonists block tumor malignancy in head and neck cancer. […] Subclones of squamous cell carcinoma of the head and neck (SCCHN) cell line 686LN were generated by passing these cells through several serial metastases in the SCCHN orthotopic animal model. The sub-populations of 686LN cells included one group with elevated metastatic activity and another group with non-metastatic parental cells. […] FIG. 2C is a scanned image of bioluminescence imaging of orthotopic xenografts of head and neck cancer treated with TN 14003. Metastatic 686LN cells (5×10^5) were injected into the neck area of nude mice, and they were divided into two groups, one with TN14003 treatment and the other with control peptide injection. 1 mg/kg of TN14003 was injected three times weekly i.p. TN14003 treatment started after tumors were established (day 8). Primary tumors were immunostained by using anti-CD31 antibody, and the microvessel density was calculated by averaging CD31-positive microvessels of primary tumors from each group (n=4) as illustrated in the bar graph of FIG. 2D. FIG. 2E is a scanned image of representative H & E stainings (original magnification, ×10) from two mice from each group.
The anti-tumor efficacy of the CXCR4 antagonist as also tested in an orthotopic SCCHN animal model. The metastatic cells were stably transfected with the luciferase gene (pGL2-control from Promega) for in vivo tracking purposes. These cells (500,000 cells) were injected into the submandibular subcutaneous tissue to the mylohyoid muscle of the nude mice to create an orthotopic SCCHN xenograft, and the tumor growth was followed using non-invasive Bioluminescence Imaging (BLI). […] The intraperitoneal treatment of TN14003 started 7 days after the tumor injection and lasted for 23 days compared to that of the control peptide. […]

The text on data set [7]:
Additionally, a synthetic 14-mer peptide blocked the CXCR4 receptor binding to its ligand SDF-1 and inhibited CXCR4/SDF-1 mediated invasion in vitro and metastasis in vivo with a higher specificity than anti-CXCR4 antibodies (R & D Systems). The anti-invasion and anti-metastasis activity of this peptide correlated well with their inhibitory activity on SDF-1α binding to CXCR4. This antagonist is proven safe by proliferation assay, animal histology, and hemopoietic progenitor cell colony formation.

Data set [8] deals with CXCR4/SDF-1 mediated invasion of MDA-MB-231. The following applies: Liang et al.; cited from earlier work.
Data set [9] has as its target T1, CXCR4 receptor on tumor cells (Homo sapiens, UniProt P61073).
T1 construct: endogenous in cells; probably MDA-MB-231 as in the drug screen
Briefly: Immunofluorescence competition with biotin-labeled CXCR4 antagonist and streptavidin-conjugated rhodamine. The class given is binding. Conditions: labeled via HYNIC and [19F]-FBA. From the text: FIG. 11A illustrates sub-fractions of a mixture of TN14003-HYNIC and FBA. After the conjugation steps, the mixture was fractionated with increasing acetonitrile concentration in a mobile phase. Mass spectroscopy data confirmed that fraction 6 contained TN14003-HYNIC, while the fraction […] contained 19F-labeled TN14003 (final product). Fractions 6 and 9 are indicated by arrows on the graph.
Using biotin-labeled CXCR4 antagonist along with streptavidin-conjugated rhodamine, the binding efficiency of the fluorine 19-labeled CXCR4 antagonist to CXCR4 receptor on tumor cells was determined and compared to that of the unlabeled CXCR4 antagonist in immunofluorescence as was done for drug screening, described above. Cells incubated with only streptavidin-conjugated rhodamine (negative control) were compared to cells incubated with both the biotin-labeled CXCR4 antagonist and streptavidin-conjugated rhodamine (positive control). When equal amounts of unlabeled CXCR4 antagonist were added into the biotin-labeled antagonist mixture, the red fluorescence decreased due to the competition between biotin-labeled antagonist and unlabeled antagonist. The same amount of red fluorescence decrease was seen when fluorine 19-labeled antagonist was added to the biotin-labeled antagonist mixture (FIG. 11B). […]

In data set [10] the test system is CXCR4/SDF-1. The data set can be described thus: LANCE cAMP assay (TR-FRET), SDF-1-induced cAMP reduction. Conditions: SDF-1 0-100 ng/ml. The class given is cell-based. The method, then: (§1) A salt form of 6-18-10, WZ811S, was tested in a matrigel invasion assay to measure its ability to inhibit CXCR4/SDF-mediated invasion. […] Thus, Perkin-Elmer's LANCE cAMP assay kit (Cat # AD0262) that was based on time-resolved fluorescence resonance energy transfer (TR-FRET) was tested. […] The results were measured in Perkin-Elmer's Envision multi-label microplate reader (384-wells) with conditions of flash energy area=low, flash energy level=239, counting cycle=1 ms, and ex/em=340 nm/665 nm.
Background: In TR-FRET formats the signal depends on donor and acceptor labels being close together.

Data set [11] deals with CXCR4/SDF-1 mediated invasion of MDA-MB-231. The data set can be described thus: Matrigel invasion assay with SDF-1 as chemoattractant. It counts as cell-based. The following applies: 100 nM. The method, then: Invasive cells penetrate matrigel and end up on the other side of the matrigel.
as §1

The conditions of data set [12]: in vivo; cited from earlier work.
In data set [13] the target is T2, CXCR4 (Homo sapiens, UniProt P61073). Conditions: cited from earlier work.
In data set [14] the target is T2, CXCR4. Briefly: Competitive binding assay against biotin-labeled TN14003 on MDA-MB-231 cells (immunofluorescence). Details: endogenous in cells; host or cells: MDA-MB-231. Conditions: cells pre-incubated with compound. Here is the method: FIG. 4A illustrates the structure of TN14003-Biotin. […] 20,000 cells of MDA-MB-231 were seeded in 8-well slide chamber two days before experiments. Various concentration of the selected compounds (10,100, and 1000 nM) were added to the separate wells, incubated for 10 minutes at room temperature, and the cells were fixed in 4% of ice-cold paraformaldelyde. The slides were subsequently incubated with 50 ng/ml of biotin-TN14003 and streptavidin-Rhomdamine, followed by sytox blue. CXCR4—Red, nuclei-blue (sytox blue)
Screening of Small Molecule CXCR4 Antagonists With a Competitive Binding Assay Against Biotin-Labeled TN14003: T140 analogs, including TN14003, bind to the ligand binding site on CXCR4, blocking the CXCR4/SDF-1 interaction, and intervening in the progression of cancer metastasis. The discovery and development of effective, orally available small molecules also remains a major focus for many medicinal chemistry programs. […] Currently, the metal-chelating cyclams and bicyclams represent the sole class of non-peptide molecules that are known to block CXCR4. […] Trent, et al. Lipid Bilayer Simulations of XCXR4 with Inverse Agonists and Weal Partial Agonists. J. Biol. Chem. 2003 Nov. 21; 278(47):47136-44. […] This information was used to create a library of compounds with multiple, basic nitrogens throughout the molecular framework that are structurally different from AMD3100. […]

T1 sequence (P61073 whole entry): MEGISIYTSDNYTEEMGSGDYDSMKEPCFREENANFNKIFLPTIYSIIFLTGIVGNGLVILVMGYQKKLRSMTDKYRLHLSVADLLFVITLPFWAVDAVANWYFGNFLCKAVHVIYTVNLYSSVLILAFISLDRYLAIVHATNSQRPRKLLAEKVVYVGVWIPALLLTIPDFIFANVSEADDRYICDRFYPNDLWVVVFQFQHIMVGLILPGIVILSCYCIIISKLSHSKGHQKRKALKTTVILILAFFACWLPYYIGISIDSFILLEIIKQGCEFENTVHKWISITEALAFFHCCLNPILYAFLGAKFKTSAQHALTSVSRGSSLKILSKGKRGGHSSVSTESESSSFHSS
T2 sequence (P61073 whole entry): as above

“H-Arg-Arg—NaI—Cys-Tyr-Arg-Lys—DLys—Pro-Tyr-Arg—Cit—Cys-Arg—OH (H-RR[2Nal]CYRK[dK]PYR[Cit]CR-OH; ends and bridges not checked) [T140, reference compound]”: in data set [1], the “SI=CC50/EC50” value is 17,879 and the EC50 is 0.0033 µM. For the same compound, the CC50 in data set [2] is 59 µM.

Consider `N=C(N)NCCC[C@H](NC(=O)[C@@H]1CSSC[C@H](NC(=O)[C@H](Cc2ccc3ccccc3c2)NC(=O)[C@H](CCCNC(=N)N)NC(=O)[C@@H](N)CCCNC(=N)N)C(=O)N[C@@H](Cc2ccc(O)cc2)C(=O)N[C@@H](CCCNC(N)=O)C(=O)N[C@@H](CCCCN)C(=O)N[C@H](CCCCN)C(=O)N2CCC[C@H]2C(=O)N[C@@H](Cc2ccc(O)cc2)C(=O)N[C@@H](CCCNC(=N)N)C(=O)N[C@@H](CCCNC(N)=O)C(=O)N1)C(N)=O` [TN14003, H-Arg-Arg—NaI—Cys-Tyr—Cit-Lys—DLys—Pro-Tyr-Arg—Cit—Cys-Arg—NH2] (H-RR[2Nal]CY[Cit]K[dK]PYR[Cit]CR-NH2; disulfide 4-13), for which, in [3], the “SDF-1 induced tubular network formation” value was “inhibited tubular network formation”. In addition, in data set [4], the “blocking of CXCR4-mediated metastasis in vivo” value is “completely inhibited CXCR4-mediated cancer metastasis in vivo”. The “lung metastasis (FDG-PET, confirmed by histology)” value in data set [5] is “prevented lung metastasis of SCCHN; also recorded: inhibited lung metastasis”. Further, in data set [6] (1 mg/kg, i.p., pre-established tumors), the “primary tumor growth (bioluminescence imaging)” value is given as “suppressed even the primary tumor”. Moreover, the “tumor angiogenesis / microvessel density (CD31 immunostaining)” value in data set [6] (1 mg/kg, i.p., primary tumors) is listed as “significantly blocked tumor angiogenesis at the primary site”. Also, the “lung metastases (H&E)” value in [6] (orthotopic model, treated vs control group) is given as “reduction in the metastases”. Besides, in data set [7], the safety result is listed as “proven safe”. The “blocking SDF-1-mediated invasion versus anti-CXCR4 antibody” value in data set [8] is listed as “more effectively than an anti-CXCR4 antibody”. Besides, in [1], the “SI=CC50/EC50” value is on record as 680,000 and the EC50 is 0.0006 µM. In addition, in [2], the CC50 is 410 µM and the “cytotoxicity compared to T140” value is recorded as “far less cytotoxic”.

For “^19F-labeled TN14003: TN14003-HYNIC conjugated with non-radioactive [19F]-fluorobenzaldehyde (RR[2Nal]CY[Cit]K[dK]PYR[Cit]CR-NH2; disulfide 4-13; also: HYNIC linker conjugated as hydrazone with [19F]-fluorobenzaldehyde, attachment site not given here)”, in [9], the “blocking of binding of biotin-labeled TN14003 to CXCR4 on cell surface by preincubation” value is listed as “completely blocked”. Also, the “binding efficiency to CXCR4 relative to unlabeled antagonist (red fluorescence decrease)” value in data set [9] (equal amounts) is listed as “the same as that of unlabeled (original) antagonist”.

As to “SDF-1: stromal cell-derived factor 1, ligand of CXCR4”, in data set [10], the “EC80 of absorption increase at 665 nM” value came out at 0.03 mg/L.

On to `c1cc(CN2CCCNCCNCCCNCC2)ccc1CN1CCCNCCNCCCNCC1` [AMD3100], for which, in data set [11], the “blocking SDF-1-induced invasion” value is “not as effective as WZ811S”. Also, in data set [3], the “SDF-1 induced tubular network formation” value is given as “could not”. The clinical safety outcome in [12] was “withdrawn due to cardiotoxicity”. In data set [13], the “functional character at CXCR4” value is “weak partial agonist”. Besides, in [14], the “concentration needed to compete against biotin-labeled TN14003” value is 10 µM.
